Species: Rattus norvegicus
Assay: Open TG-GATES - Regimen: Single
Type: toxicity, organism-based, Sprague-Dawley
Design: regimen Single, gender Male, age 6 weeks
Conditions: in vivo, po, 0 mg/kg, route gavage, dose level Control; for APTT / Bas / Eos / Fbg / Hb / Ht / Lym / MCH / MCHC / MCV / Mono / Neu / PT / Plat / RBC / Ret / WBC: tissue Blood; for KIDNEY_L / KIDNEY_R / KIDNEY_TOTAL: tissue Kidney; for LIVER: tissue Liver; for A/G / ALP / ALT / AST / BUN / CRE / Ca / Cl / DBIL / GLC / IP / K / LDH / Na / PL / RALB / TBIL / TC / TG / TP / gamma-GTP: tissue Plasma

`COC1=CC(=O)C[C@@H](C)[C@]12Oc1c(Cl)c(OC)cc(OC)c1C2=O` [GRISEOFULVIN] showed a TERMINAL_BW (3 h) of 211.3 g, an APTT (3 h) of 21.6 s and a Bas (3 h) of 0%. The Eos (3 h) was 0.4%, the Fbg (3 h) was 224.4 mg/dL and the Hb (3 h) was 13.4 g/dL. It also gave a Ht (3 h) of 39.4%, a Lym (3 h) of 76% and an MCH (3 h) of 21.7 pg. The MCHC (3 h) was 34.1%, the MCV (3 h) was 63.5 fL and the Mono (3 h) was 3%. For the same compound, the Neu (3 h) was 19.6%, the PT (3 h) was 12.9 s and the Plat (3 h) was 119.6 x10_4/uL. For the same compound, the RBC (3 h) was 620.8 x10_4/ul, the Ret (3 h) was 7.4% and the WBC (3 h) was 103.5 x10_2/uL. The KIDNEY_L (3 h) was 1 g, the KIDNEY_R (3 h) was 1 g and the KIDNEY_TOTAL (3 h) was 1.9 g. For the same compound, the LIVER (3 h) was 9.8 g, the A/G (3 h) was 1.9 and the ALP (3 h) was 1043.6 IU/L. The ALT (3 h) was 45.2 IU/L, the AST (3 h) was 71 IU/L and the BUN (3 h) was 10.8 mg/dL. For the same compound, the CRE (3 h) was 0.3 mg/dL, the Ca (3 h) was 10.8 mg/dL and the Cl (3 h) was 104.4 meq/L. The DBIL (3 h) was 0.2 mg/dL, the GLC (3 h) was 195.4 mg/dL and the IP (3 h) was 9.3 mg/dL. It also gave a K (3 h) of 4 meq/L, an LDH (3 h) of 129.8 IU/L and a Na (3 h) of 141.4 meq/L. The PL (3 h) was 167.6 mg/dL, the RALB (3 h) was 3.5 g/dL and the TBIL (3 h) was 0.2 mg/dL. For the same compound, the TC (3 h) was 85.8 mg/dL, the TG (3 h) was 97.4 mg/dL and the TP (3 h) was 5.4 g/dL. It also gave a gamma-GTP (3 h) of 1.4 IU/L, a TERMINAL_BW (6 h) of 210.2 g and an APTT (6 h) of 18.8 s. For the same compound, the Bas (6 h) was 0%, the Eos (6 h) was 0.8% and the Fbg (6 h) was 231.8 mg/dL. The Hb (6 h) was 13.8 g/dL, the Ht (6 h) was 41.1% and the Lym (6 h) was 79.4%. For the same compound, the MCH (6 h) was 20.9 pg, the MCHC (6 h) was 33.6% and the MCV (6 h) was 62.1 fL. It also gave a Mono (6 h) of 3.2%, a Neu (6 h) of 16% and a PT (6 h) of 12.7 s. For the same compound, the Plat (6 h) was 132.8 x10_4/uL, the RBC (6 h) was 662.4 x10_4/ul and the Ret (6 h) was 7.1%. The WBC (6 h) was 107.8 x10_2/uL, the KIDNEY_L (6 h) was 1 g and the KIDNEY_R (6 h) was 1 g. It also gave a KIDNEY_TOTAL (6 h) of 1.9 g, an LIVER (6 h) of 9 g and an A/G (6 h) of 1.7. It also gave an ALP (6 h) of 1097.4 IU/L, an ALT (6 h) of 34.6 IU/L and an AST (6 h) of 67 IU/L. For the same compound, the BUN (6 h) was 8.6 mg/dL, the CRE (6 h) was 0.3 mg/dL and the Ca (6 h) was 10.7 mg/dL. The Cl (6 h) was 103.4 meq/L, the DBIL (6 h) was 0.098 mg/dL and the GLC (6 h) was 209.6 mg/dL. The IP (6 h) was 10 mg/dL, the K (6 h) was 3.9 meq/L and the LDH (6 h) was 157.4 IU/L. The Na (6 h) was 141.4 meq/L, the PL (6 h) was 138.8 mg/dL and the RALB (6 h) was 3.4 g/dL. For the same compound, the TBIL (6 h) was 0.2 mg/dL, the TC (6 h) was 73.4 mg/dL and the TG (6 h) was 63.2 mg/dL. For the same compound, the TP (6 h) was 5.4 g/dL, the gamma-GTP (6 h) was 1.2 IU/L and the TERMINAL_BW (9 h) was 209.9 g. The APTT (9 h) was 18.2 s, the Bas (9 h) was 0% and the Eos (9 h) was 1%. It also gave a Fbg (9 h) of 226 mg/dL, a Hb (9 h) of 13.5 g/dL and a Ht (9 h) of 39.7%. It also gave a Lym (9 h) of 72.6%, an MCH (9 h) of 21.4 pg and an MCHC (9 h) of 33.9%. For the same compound, the MCV (9 h) was 63.1 fL, the Mono (9 h) was 2.4% and the Neu (9 h) was 23.8%. It also gave a PT (9 h) of 12.9 s, a Plat (9 h) of 117.6 x10_4/uL and an RBC (9 h) of 628.8 x10_4/ul. It also gave a Ret (9 h) of 7.4%, a WBC (9 h) of 73.2 x10_2/uL and a KIDNEY_L (9 h) of 0.9 g. For the same compound, the KIDNEY_R (9 h) was 0.9 g, the KIDNEY_TOTAL (9 h) was 1.9 g and the LIVER (9 h) was 8.3 g. It also gave an A/G (9 h) of 1.7, an ALP (9 h) of 1130.6 IU/L and an ALT (9 h) of 32.4 IU/L. It also gave an AST (9 h) of 59.8 IU/L, a BUN (9 h) of 11 mg/dL and a CRE (9 h) of 0.4 mg/dL. The Ca (9 h) was 10.4 mg/dL, the Cl (9 h) was 103.6 meq/L and the DBIL (9 h) was 0.078 mg/dL. For the same compound, the GLC (9 h) was 206 mg/dL, the IP (9 h) was 10.1 mg/dL and the K (9 h) was 4 meq/L. For the same compound, the LDH (9 h) was 100.8 IU/L, the Na (9 h) was 141.8 meq/L and the PL (9 h) was 148.2 mg/dL. The RALB (9 h) was 3.5 g/dL, the TBIL (9 h) was 0.1 mg/dL and the TC (9 h) was 79.8 mg/dL. For the same compound, the TG (9 h) was 41.2 mg/dL, the TP (9 h) was 5.5 g/dL and the gamma-GTP (9 h) was 1.2 IU/L. The TERMINAL_BW (24 h) was 224 g, the APTT (24 h) was 18.9 s and the Bas (24 h) was 0%. For the same compound, the Eos (24 h) was 1%, the Fbg (24 h) was 214.4 mg/dL and the Hb (24 h) was 13 g/dL. The Ht (24 h) was 39.3%, the Lym (24 h) was 79.2% and the MCH (24 h) was 21.6 pg. The MCHC (24 h) was 33%, the MCV (24 h) was 65.4 fL and the Mono (24 h) was 3%. For the same compound, the Neu (24 h) was 16.6%, the PT (24 h) was 12.8 s and the Plat (24 h) was 111.8 x10_4/uL. The RBC (24 h) was 601.4 x10_4/ul, the Ret (24 h) was 8% and the WBC (24 h) was 72.9 x10_2/uL. It also gave a KIDNEY_L (24 h) of 1.1 g, a KIDNEY_R (24 h) of 1 g and a KIDNEY_TOTAL (24 h) of 2.1 g. It also gave an LIVER (24 h) of 11.1 g, an A/G (24 h) of 1.7 and an ALP (24 h) of 884.4 IU/L. It also gave an ALT (24 h) of 37.6 IU/L, an AST (24 h) of 61.8 IU/L and a BUN (24 h) of 16 mg/dL. For the same compound, the CRE (24 h) was 0.4 mg/dL, the Ca (24 h) was 10.9 mg/dL and the Cl (24 h) was 104 meq/L. For the same compound, the DBIL (24 h) was 0.1 mg/dL, the GLC (24 h) was 208.8 mg/dL and the IP (24 h) was 7.5 mg/dL. The K (24 h) was 4.2 meq/L, the LDH (24 h) was 148.2 IU/L and the Na (24 h) was 141.4 meq/L. It also gave a PL (24 h) of 149 mg/dL, an RALB (24 h) of 3.4 g/dL and a TBIL (24 h) of 0.2 mg/dL. It also gave a TC (24 h) of 78 mg/dL, a TG (24 h) of 119.8 mg/dL and a TP (24 h) of 5.4 g/dL. The gamma-GTP (24 h) was 1.2 IU/L.
